Data reported in the supplement of paper PMC10307832.

Assays:
Assay in all cases: relative viability (nuclei count vs DMSO), 5 days (fraction); higher = more cells survive
[1] = compound: CCn1c(-c2nonc2N)nc2cnc(Oc3cccc(NC(=O)c4ccc(OCCN5CCOCC5)cc4)c3)cc21 + C[C@]1(O)C[C@@H](c2nc(-c3ccc4ccc(-c5ccccc5)nc4c3)c3c(N)nccn32)C1 [Linsitinib] (partner 1 µM)
How it was run: (§1)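 The day after seeding in 1536-well plates, lung cancer cell lines were treated by pin tool with a single drug, or with a fixed anchor-drug dose together with five library-drug doses (not always all listed) in √10 steps. After 5 days, a combined fix-and-stain solution (final 0.05% Triton X-100, 1% formaldehyde, 1 ug/ml Hoechst) was added. Nuclei counted on 4× images gave relative viability as treated counts over vehicle counts, reported as the median of duplicate plates.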

[2] = compound: CCC1=CN=CN=C1N2CCN(CC2)CC3=NC4=C(N3)C=C(C=C4)C(F)(F)F + NC(=O)Nc1cc(-c2cccc(F)c2)sc1C(=O)N[C@H]1CCCNC1 [AZD7762] (partner 0.2 µM)
How it was run: as §1

[3] = compound: CCn1c(-c2nonc2N)nc2cnc(Oc3cccc(NC(=O)c4ccc(OCCN5CCOCC5)cc4)c3)cc21 + CC(=O)c1c(C)c2cnc(Nc3ccc(N4CCNCC4)cn3)nc2n(C2CCCC2)c1=O [Palbociclib] (partner 0.5 µM)
How it was run: as §1

Mirin + Palbociclib = compound: N=C1NC(=O)/C(=C/c2ccc(O)cc2)S1 [Mirin] + CC(=O)c1c(C)c2cnc(Nc3ccc(N4CCNCC4)cn3)nc2n(C2CCCC2)c1=O [Palbociclib] (partner 0.5 µM)
How it was run: as §1

Cell Line	relative viability ([1]; first compound 0.04 µM)	relative viability ([1]; first compound 0.1265 µM)	relative viability ([1]; first compound 1.265 µM)	relative viability ([1]; first compound 4 µM)	relative viability ([2]; first compound 0.04 µM)	relative viability ([2]; first compound 0.1265 µM)	relative viability ([2]; first compound 0.4 µM)	relative viability ([2]; first compound 1.265 µM)	relative viability ([2]; first compound 4 µM)	relative viability ([3]; first compound 0.04 µM)	relative viability ([3]; first compound 0.1265 µM)	relative viability ([3]; first compound 1.265 µM)	relative viability ([3]; first compound 4 µM)	relative viability (Mirin + Palbociclib; first compound 0.25 µM)	relative viability (Mirin + Palbociclib; first compound 0.7906 µM)	relative viability (Mirin + Palbociclib; first compound 2.5 µM)	relative viability (Mirin + Palbociclib; first compound 7.906 µM)	relative viability (Mirin + Palbociclib; first compound 25 µM)	relative viability ([1]; first compound 0.4 µM)	relative viability ([3]; first compound 0.4 µM)
LCLC-97TM1	0.221	0.204	0.206	0.181	0.263	0.206	0.22	0.309	0.274	0.276	0.245	0.27	0.281	0.227	0.236	0.192	0.152	0.198	–	–
LCLC-103H	1.12	1.07	1.05	1.03	0.776	0.774	0.794	0.684	0.865	0.478	0.464	0.429	0.518	0.421	0.518	0.515	0.458	0.451	0.902	0.485
LK-2	0.522	0.691	0.342	0.74	0.414	0.476	0.353	0.209	0.466	0.627	0.787	0.568	0.673	0.538	–	0.774	0.463	0.188	0.572	0.541
LOU-NH91	1	0.748	0.632	0.611	0.758	0.743	0.72	0.634	0.831	0.508	0.476	0.422	0.421	0.548	0.569	0.529	0.519	0.555	0.744	0.502
LU99A	0.56	0.458	0.539	0.565	0.41	0.301	0.34	0.359	0.403	0.502	0.399	0.405	0.392	0.412	0.339	0.425	0.358	0.339	0.507	0.392
LXF-289	1.08	1.06	0.978	0.973	1.3	1.01	1.1	1.29	1.05	0.67	0.654	0.585	0.548	0.585	0.648	0.591	0.623	0.701	0.955	0.6
NCI-H23	0.636	0.827	0.549	0.477	0.25	0.202	0.162	0.229	0.325	0.708	0.521	0.394	0.353	0.548	–	0.519	0.49	0.524	–	0.547
NCI-H322M	1.03	0.845	0.939	0.808	0.538	0.591	0.572	0.511	0.653	0.543	0.51	0.451	0.486	0.466	0.497	0.521	0.553	0.522	0.912	0.487
NCI-H358	1.12	0.615	0.571	0.434	0.614	0.436	0.453	0.51	0.485	0.162	0.167	0.145	0.135	0.127	0.145	0.148	0.139	0.199	0.574	0.134
NCI-H441	0.545	0.766	0.566	0.465	1.29	1.15	1.03	1.15	1.21	0.26	0.234	0.226	0.25	0.259	0.232	0.241	0.242	0.175	0.635	0.157
NCI-H460	1.35	0.794	0.144	0.135	0.622	0.528	0.619	0.578	0.6	0.213	0.126	0.056	0.073	0.18	0.148	0.157	0.157	0.123	0.513	0.101
NCI-H647	0.993	1	0.729	0.558	0.438	0.476	0.457	0.471	0.554	0.494	0.297	0.235	0.297	0.395	0.4	0.381	0.374	0.345	1.01	0.317
NCI-H650	1.01	0.667	0.304	0.426	0.844	0.909	1.01	1.29	0.946	0.349	0.297	0.201	0.184	0.306	0.399	0.333	0.265	0.38	0.521	0.255
NCI-H727	0.265	0.379	0.506	0.268	0.641	0.593	0.522	0.566	0.541	–	0.63	0.657	0.622	0.707	0.782	0.594	0.615	0.636	0.406	0.599
NCI-H838	0.863	0.49	0.392	0.289	1.04	0.877	0.904	0.829	0.948	0.19	0.175	0.157	0.179	0.25	0.232	0.232	0.234	0.236	0.439	0.147
NCI-H1355	0.904	0.77	0.834	0.812	0.744	0.722	0.638	0.627	0.637	0.321	0.411	0.397	0.374	0.395	0.427	0.41	0.412	0.443	0.802	0.411
NCI-H1395	1.25	0.931	0.502	0.616	0.398	0.349	0.37	–	0.474	0.562	0.558	0.457	0.482	0.588	–	0.594	0.69	0.581	1.04	0.565

Cell Line	relative viability ([1]; first compound 0.04 µM)	relative viability ([1]; first compound 0.1265 µM)	relative viability ([1]; first compound 1.265 µM)	relative viability ([1]; first compound 4 µM)	relative viability ([2]; first compound 0.04 µM)	relative viability ([2]; first compound 0.1265 µM)	relative viability ([2]; first compound 0.4 µM)	relative viability ([2]; first compound 1.265 µM)	relative viability ([2]; first compound 4 µM)	relative viability ([3]; first compound 0.04 µM)	relative viability ([3]; first compound 0.1265 µM)	relative viability ([3]; first compound 1.265 µM)	relative viability ([3]; first compound 4 µM)	relative viability (Mirin + Palbociclib; first compound 0.25 µM)	relative viability (Mirin + Palbociclib; first compound 0.7906 µM)	relative viability (Mirin + Palbociclib; first compound 2.5 µM)	relative viability (Mirin + Palbociclib; first compound 7.906 µM)	relative viability (Mirin + Palbociclib; first compound 25 µM)	relative viability ([1]; first compound 0.4 µM)	relative viability ([3]; first compound 0.4 µM)
NCI-H1437	1.31	1	0.742	0.549	1.13	1.15	0.996	1.03	0.706	0.355	0.367	0.279	0.331	0.358	0.32	0.292	0.318	0.327	1.05	0.389
NCI-H1651	1.15	1.1	0.859	0.642	0.452	0.433	0.436	0.484	0.524	0.587	0.584	0.369	0.432	0.477	0.561	0.53	0.497	0.516	0.986	0.476
NCI-H1666	0.797	0.985	0.667	0.413	0.864	0.77	0.767	0.716	0.815	0.635	0.64	0.57	0.538	0.684	0.665	0.64	0.627	0.662	0.949	0.613
NCI-H1734	1.06	0.796	0.648	0.485	0.619	0.626	0.562	0.564	0.782	0.335	0.365	0.319	0.267	0.349	0.364	0.356	0.32	0.344	0.807	0.293
NCI-H1755	1.08	1.01	0.963	0.937	0.579	0.528	0.434	0.395	0.602	0.457	0.46	0.454	0.424	0.469	0.449	0.403	0.478	0.532	0.936	0.397
NCI-H1792	0.65	0.572	0.423	0.512	0.666	0.66	0.527	–	0.685	0.694	0.583	0.542	0.582	0.561	0.714	0.664	–	0.608	–	–
NCI-H1793	0.572	0.801	0.715	0.513	0.548	0.407	0.392	0.334	0.347	0.263	0.304	0.283	0.251	0.331	–	0.349	0.335	0.339	0.915	0.3
NCI-H1915	1.16	1.11	1.07	1.06	0.684	0.688	0.694	0.597	0.734	0.522	0.524	0.386	0.376	0.502	0.48	0.503	0.504	0.438	1.07	0.516
NCI-H1944	1.31	1.18	1.14	1.16	0.757	0.512	0.465	0.379	0.607	0.269	0.377	0.329	0.38	0.315	0.325	0.328	0.287	0.226	–	0.342
NCI-H1975	0.833	0.65	0.385	0.293	0.662	0.744	0.713	0.645	0.746	0.476	0.446	0.23	0.474	0.7	0.57	0.555	0.606	0.583	0.895	0.273
NCI-H1993	0.701	0.762	0.699	0.702	0.747	0.822	0.726	0.783	0.678	0.479	0.659	0.695	0.626	0.614	0.281	0.586	0.524	0.543	–	0.642
NCI-H2085	1.02	0.9	0.792	0.683	0.75	0.941	0.987	0.791	1.03	0.514	0.44	0.359	0.39	0.458	0.47	0.495	0.562	0.486	0.756	0.402
NCI-H2087	–	0.682	0.747	0.828	1.34	1.26	1.43	1.17	1.21	0.362	0.218	0.2	0.228	0.227	0.297	0.249	0.133	0.318	0.762	0.336
NCI-H2126	0.759	0.704	0.759	0.742	0.97	1.02	0.957	1.02	1.17	0.362	0.338	0.361	0.325	0.342	0.361	0.332	0.394	0.396	0.679	0.355
NCI-H2347	0.981	0.927	0.447	0.48	0.708	0.699	0.823	0.645	0.905	0.432	0.455	0.376	0.381	0.444	0.465	0.506	0.422	0.436	0.93	0.385
NCI-H2405	0.955	0.568	0.31	0.263	0.772	0.735	0.674	–	0.901	0.572	0.361	0.234	0.222	0.512	–	0.526	0.568	0.511	0.417	0.304
